Read-outs that look alike come from different tables or passages of the source.
How the values were obtained:
[1] = post-menopausal women with osteoporosis, 20 μg PTH 1-34 subcutaneous dose, reported by the manufacturers of the commercial formulation; cited from earlier work
[2] = Ovine plasma pharmacokinetics of PTH 1-34 (four-way randomised cross-over, ELISA); assay type: in vivo; settings: sheep; for half-life: read-out: t1/2 (mean); for bioavailability: relative to intravenous injection, read-out: Fab
Procedure: Research was conducted in accordance with the requirements of the Animals (Scientific Procedures) Act 1986 (ASPA) under Procedural Project Licence (PPL) number 40/3552 (Protocol 19b/1), between 26 April 2016 and 24 May 2016, at the University of Nottingham, Nottingham, UK (Procedural Establishment Licence (PEL) number PCD 40/2406). The overarching protocol (as detailed in the PPL) was subject to full review by the Animal Welfare and Ethical Review Board (AWERB), and the study-specific protocol received a more localised review by the Named Animal Care and Welfare Officer (NACWO) and Named Veterinary Surgeon (NVS). This research governance is compliant with recommended ethical review processes. In view of the clinical data obtained in the present study, the pharmacokinetics of the Solutol® HS15-based formulation of PTH 1-34 were further investigated in sheep. The sheep study replicated the clinical trial in that it tested the nasal solution formulation of PTH 1-34 as well as a subcutaneous injection, but also evaluated pharmacokinetics of PTH 1-34 following intravenous injection and an intranasal PTH1-34 dry powder formulation.
The study was conducted according to a four-way randomised cross-over study in four (Mule crossbred) female sheep (obtained from a reputable commercial supplier). The sheep were group housed in a heat and ventilation air conditioned (HVAC) facility for the duration of the study, and were uniquely identified by a combination of ear tag and electronic transponder. On arrival, the animals were also randomly assigned a unique identifier by the facilities Research Animal Facility Management system (LabTracks, Locus Technology Inc., Manchester, MD, USA) and an abbreviated study number (1, 2, 3 and 4). To aid identification during the study, the fleece of each animal was marked with the abbreviated study number by spraying with a commercial stockmarker (dye). The animals were acclimatised for 17 days prior to initiation of treatments. The animals were subject to a health inspection by the NVS prior to and after use in the study, and were monitored during the study by the PPL holder and facility personnel supported by the NACWO, NVS and University of Nottingham personnel. Animals were weighed weekly during the study (Supplementary Materials: Section S3).
Administration of the PTH 1-34 was either as an intranasal liquid, intranasal dry powder, subcutaneous injection or intravenous injection. The treatments were randomised according to a Latin Square design using an online randomisation programme (Experimental Design Generator and Randomiser (Edgar) accessed from: http://www.edgarweb.org.uk/) with a minimum of a two day washout period between study legs. Immediately prior to dosing, the four sheep were sedated by an intravenous injection of ketamine hydrochloride (100 mg/mL solution administered at 2.25 mg/kg). This provided approximately 3 min sedation, during which period the sheep were dosed.
The formulations were prepared at Critical Pharmaceuticals’ Laboratories and transported, refrigerated, to the study facility. The intranasal liquid was administered via the right nostril using a LMA™ MAD110 Nasal™ Intranasal mucosal atomization device (MAD110) (Wolfe-Tory Medical, Inc., Salt Lake City, UT, USA) customised for use in sheep (to allow circumvention of the nostril and delivery of the dose to the respiratory mucosa of the nasal cavity). The intranasal powder formulation was also administered via the right nostril using a 5 mm oral/nasal tracheal tube Portex® Blueline 100/111/050, (Smiths Medical, Ashford, UK) and one-way bellows. The amount of powder administered to each animal, and thus the nominal dose of PTH 1-34, was determined by weighing the devices before and after the nasal administrations. The subcutaneous and intravenous bolus injections of PTH 1-34 were administered into the flank and a jugular vein, respectively. […]

[3] = female, Mule crossbred, 20 ug, four-way crossover, intravenous bolus (jugular vein), solution without Solutol HS15, 20 μg, plasma ELISA, mean ± SE, n = 4
[4] = female, Mule crossbred, inhaled or intranasal, 200 ug, four-way crossover, intranasal liquid with 7.5% w/v Solutol HS15, 200 μg, single nostril, plasma ELISA, mean ± SE, n = 4
[5] = female, Mule crossbred, inhaled or intranasal, 200 ug, four-way crossover, intranasal liquid with 7.5% w/v Solutol HS15, 200 μg, single nostril, plasma ELISA, mean ± SE, n = 4, not dose-corrected
[6] = female, Mule crossbred, inhaled or intranasal, four-way crossover, intranasal dry powder (1% PTH 1-34, 39% gellan gum, 40% Solutol HS15, 20% trehalose), nominal 200 μg (estimated 130 ± 15 μg), plasma ELISA, mean ± SE, n = 4
[7] = female, Mule crossbred, sc, 20 ug, four-way crossover, subcutaneous injection into flank, solution without Solutol HS15, 20 μg, plasma ELISA, mean ± SE, n = 3
[8] = four-way crossover, intranasal dry powder with Solutol HS15 and gellan gum, nominal 200 μg (estimated 130 ± 15 μg), plasma ELISA, n = 4
[9] = four-way crossover, intranasal liquid with 7.5% w/v Solutol HS15, 200 μg, single nostril, plasma ELISA, n = 4
[10] = four-way crossover, intravenous bolus (jugular vein), solution without Solutol HS15, 20 μg, plasma ELISA, n = 4
[11] = four-way crossover, subcutaneous injection into flank, solution without Solutol HS15, 20 μg, plasma ELISA, n = 3

For `CC[C@H](C)[C@H](NC(=O)[C@H](CCC(=O)O)NC(=O)[C@H](CO)NC(=O)[C@@H](NC(=O)[C@@H](N)CO)C(C)C)C(=O)N[C@@H](CCC(N)=O)C(=O)N[C@@H](CC(C)C)C(=O)N[C@@H](CCSC)C(=O)N[C@@H](Cc1cnc[nH]1)C(=O)N[C@@H](CC(N)=O)C(=O)N[C@@H](CC(C)C)C(=O)NCC(=O)N[C@@H](CCCCN)C(=O)N[C@@H](Cc1cnc[nH]1)C(=O)N[C@@H](CC(C)C)C(=O)N[C@@H](CC(N)=O)C(=O)N[C@@H](CO)C(=O)N[C@@H](CCSC)C(=O)N[C@@H](CCC(=O)O)C(=O)N[C@@H](CCCN=C(N)N)C(=O)N[C@H](C(=O)N[C@@H](CCC(=O)O)C(=O)N[C@@H](Cc1c[nH]c2ccccc12)C(=O)N[C@@H](CC(C)C)C(=O)N[C@@H](CCCN=C(N)N)C(=O)N[C@@H](CCCCN)C(=O)N[C@@H](CCCCN)C(=O)N[C@@H](CC(C)C)C(=O)N[C@@H](CCC(N)=O)C(=O)N[C@@H](CC(=O)O)C(=O)N[C@H](C(=O)N[C@@H](Cc1cnc[nH]1)C(=O)N[C@@H](CC(N)=O)C(=O)N[C@@H](Cc1ccccc1)C(=O)O)C(C)C)C(C)C` [PTH 1-34, PTH 1-34 acetate], the Cmax [1] is listed as ~0.15 ng/mL, the elimination half-life [1] is listed as “approximately 1 h” and the AUC(0-inf) [2, 3] is listed as 0.18 ng·h/mL. For the same molecule, the AUC(0-t) [2, 3] was 0.178 ng·h/mL, the Tmax [2, 3] was 2 min and the half-life [2, 3] was 75 ± 18.1 min. It also gave a Cmax ([2]; female, Mule crossbred, 20 ug, four-way crossover, intravenous bolus (jugular vein), solution without Solutol HS15, 20 μg, plasma ELISA, observed, mean ± SE, n = 4) of 1.14 ± 0.198 ng/mL, a Cmax [2, 4] of 0.047 ± 0.021 ng/mL and a Tmax [2, 4] of 10 min. For the same molecule, the AUC(0-inf) [2, 5] was 0.0204 ng·h/mL, the AUC(0-t) [2, 5] was 0.0182 ng·h/mL and the half-life [2, 4] was 109 ± 43.7 min. It also gave a Cmax [2, 6] of 0.008 ± 0.003 ng/mL, a Tmax [2, 6] of 11 min and a half-life ([2]; female, Mule crossbred, inhaled or intranasal, four-way crossover, intranasal dry powder with Solutol HS15 and gellan gum, nominal 200 μg (estimated 130 ± 15 μg), plasma ELISA, mean ± SE, n = 4) of 96 ± 29.8 min. For the same molecule, the C0 ([2]; female, Mule crossbred, plasma, 20 ug, intravenous bolus 20 μg, back-extrapolated from the first two concentration values, mean ± SE, read-out: C0 (initial plasma concentration, extrapolation to t = 0)) was 2.18 ± 0.696 ng/mL, the F rel ([2]; female, Mule crossbred, plasma, inhaled or intranasal, 200 ug, intranasal liquid with 7.5% w/v Solutol HS15, 200 μg, relative to subcutaneous injection, from AUCINF, dose-corrected, mean ± SE, n = 4, read-out: Frel) was 1.4 ± 0.31% and the bioavailability ([2]; female, Mule crossbred, plasma, inhaled or intranasal, 200 μg, intranasal dry powder with Solutol HS15 and gellan gum, from AUCINF, corrected with estimated dose, mean ± SE, n = 4) was 0.7 ± 0.03%. It also gave a F rel ([2]; female, Mule crossbred, plasma, inhaled or intranasal, 200 μg, intranasal dry powder with Solutol HS15 and gellan gum, relative to subcutaneous injection, from AUCINF, corrected with estimated dose, mean ± SE, n = 4, read-out: Frel) of 1 ± 0.12%, a bioavailability ([2]; female, Mule crossbred, plasma, inhaled or intranasal, 200 ug, intranasal liquid with 7.5% w/v Solutol HS15, 200 μg, from AUCINF, dose-corrected, mean ± SE, n = 4) of 1.1 ± 0.26% and a F rel ([2]; female, Mule crossbred, plasma, iv, 20 ug, intravenous bolus 20 μg, relative to subcutaneous injection, calculated for n = 3, read-out: Frel, n = 3) of 140%. For the same molecule, the F rel ([2]; female, Mule crossbred, plasma, iv, 20 ug, intravenous bolus 20 μg, relative to subcutaneous injection, from AUCINF, mean ± SE, n = 4 (average subcutaneous AUCINF used for Sheep 1), read-out: Frel) was 156 ± 24%, the bioavailability ([2]; female, Mule crossbred, plasma, sc, 20 ug, subcutaneous injection into flank, 20 μg, from AUCINF, mean ± SE, n = 3) was 77 ± 13.7% and the AUC(0-inf) [2, 7] was 0.124 ng·h/mL. For the same molecule, the AUC(0-t) [2, 7] was 0.12 ng·h/mL, the Cmax [2, 7] was 0.121 ± 0.047 ng/mL and the Tmax [2, 7] was 12 min. The half-life [2, 7] was 54 ± 8.7 min, the “Tmax (median)” value [2, 8] was 8 min and the “t1/2 (median)” value [2, 8] was 71 min. The “Tmax (median)” value [2, 9] was 10 min, the “t1/2 (median)” value [2, 9] was 77 min and the “Tmax (mean)” value ([2]; four-way crossover, intravenous bolus (jugular vein), solution without Solutol HS15, 20 μg, plasma ELISA, mean ± SE, n = 4) was 2 min. The “Tmax (median)” value [2, 10] was 2 min, the “t1/2 (median)” value [2, 10] was 78 min and the “Tmax (median)” value [2, 11] was 10 min. For the same molecule, the “t1/2 (median)” value [2, 11] was 47 min, the Frel ([2]; intranasal liquid with 7.5% w/v Solutol HS15, 200 μg, relative to subcutaneous injection, from AUCINF, dose-corrected, mean ± SE, n = 4) was 1.4 ± 0.3% and the “time by which concentrations had returned to near baseline values” ([2]; intranasal liquid with Solutol HS15, 200 μg, post-dose) was ≤ 30 min. The “time of return to near baseline” value ([2]; intravenous bolus 20 μg) was 30 to 45 min and the Fab range ([2]; subcutaneous injection 20 μg, relative to intravenous, range) was 55–108%.

— paper PMC6631119, “Nasal Administration and Plasma Pharmacokinetics of Parathyroid Hormone Peptide PTH 1-34 for the Treatment of Osteoporosis” (Pharmaceutics, 2019)
